Tests used:
Assay type in all cases: physicochemical
[1] = Solubility and impurities of API with solubility enhancing excipients in citrate or phosphate buffer pH 4.5; settings: for solubility: thermodynamic from solid
Description: The solubility of the API was assessed in different buffers together with different excipients. Batches containing different amounts of non-micronized API (i.e. 1 mg, 4 mg, 10 mg or 15 mg) in 100 g buffer were manufactured in order to have saturated solutions. Two different buffers were chosen (citrate buffer and phosphate buffer). […] In order to improve the poor solubility of the API, different solubility enhancing excipients were incorporated in the buffer systems in a concentration range of 0.1-2 wt.-%:
First, buffers were prepared according to Ph. Eur. After pH adjustment, the corresponding excipient was dissolved in the buffer. 1 mg of the API was added to the excipient containing buffer (i.e. 100 g) and stirred. If the API was dissolved completely, another 9 mg were added to a final amount of 10 mg API in […] buffer/excipient mixture. The resulting compositions were stirred overnight prior to filtration through a 0.45 μm filter and analysis and contained 1 mg or 10 mg API, respectively. The following compositions were prepared and the following solubility values were achieved: […]

[2] = Stability after autoclaving; settings: 121° C. and 2 bar for 20 min
Description: The stability of the pharmaceutical composition was assessed by means of autoclaving experiments, where the compositions were treated at 121° C. and 2 bar for 20 min.
Autoclaving experiments were performed with the aim to evaluate the stability of API in defined buffer systems and excipients. Clear glass covered by aluminium foil was chosen as primary packaging as it provided sufficient light protection for the material and was expected to provide a smaller risk of interaction than amber glass. The batches were autoclaved at 121° C. and 2 bar for 20 min, following analysis of impurity profiles.

[3] = Preliminary stability study of API intravesical solution; settings: for Assay / Impurities: vitamin E TPGS 0.5%, API 40 μg/mL, Asc. 1%
Description: Two dose strengths were specified: 40 μg/mL and 150 μg/mL API. These concentrations were defined in order to stay below 80% of the saturated solubility values obtained during previous experiments. To enable dissolution of the API, 0.5 wt.-% and 2 wt.-% vitamin E TPGS were used for 40 μg/mL and 150 μg/mL API, respectively (24 h stirring). The compositions were treated with nitrogen and stored at 5° C., 25° C. and 40° C.

CN(C)[C@]1(c2cccc(F)c2)CC[C@]2(CC1)c1[nH]c3ccccc3c1CCN2C(=O)/C=C/c1ccccc1 [API, cis-(E)-4-(3-fluorophenyl)-2′,3′,4′,9′-tetrahydro-N,N-dimethyl-2′-(1-oxo-3-phenyl-2-propenyl)-spiro[cyclohexane-1,1′[1H]-pyrido[3,4-b]indol]-4-amine]
Sum of impurities ([1]; citrate buffer pH 4.5, 1 wt.-% Cremophor ® RH 40, 1 mg API in 100 g buffer): 0.92 % (a/a)
Sum of impurities ([1]; citrate buffer pH 4.5, 1 wt.-% Gelucire ® 44/14, 10 mg API in 100 g buffer): 25.91 % (a/a)
Sum of impurities ([1]; citrate buffer pH 4.5, 1 wt.-% Labrasol ®, 10 mg API in 100 g buffer): 19.81 % (a/a)
Sum of impurities ([1]; citrate buffer pH 4.5, 1 wt.-% PEG 400, 10 mg API in 100 g buffer): 0 % (a/a)
Sum of impurities ([1]; citrate buffer pH 4.5, 1 wt.-% Propylene glycol, 10 mg API in 100 g buffer): 0 % (a/a)
Sum of impurities ([1]; citrate buffer pH 4.5, 1 wt.-% SLS, 1 mg API in 100 g buffer): 5.52 % (a/a)
Sum of impurities ([1]; citrate buffer pH 4.5, 1 wt.-% SLS, 10 mg API in 100 g buffer): 3.47 % (a/a)
Sum of impurities ([1]; citrate buffer pH 4.5, 1 wt.-% Solutol ® HS 15, 1 mg API in 100 g buffer): 0.53 % (a/a)
Sum of impurities ([1]; citrate buffer pH 4.5, 1 wt.-% Tween ® 80, 1 mg API in 100 g buffer): 1.1 % (a/a)
Sum of impurities ([1]; citrate buffer pH 4.5, 1 wt.-% vitamin E TPGS, 10 mg API in 100 g buffer): 5.71 % (a/a)
solubility ([1]; citrate buffer, pH 4.5, aqueous with cosolvent or surfactant or cyclodextrin, citrate buffer pH 4.5, 1 wt.-% Cremophor ® RH 40, 1 mg API in 100 g buffer): 7.18 µg/mL
solubility ([1]; citrate buffer, pH 4.5, aqueous with cosolvent or surfactant or cyclodextrin, citrate buffer pH 4.5, 1 wt.-% Gelucire ® 44/14, 10 mg API in 100 g buffer): 34.9 µg/mL
solubility ([1]; citrate buffer, pH 4.5, aqueous with cosolvent or surfactant or cyclodextrin, citrate buffer pH 4.5, 1 wt.-% Labrasol ®, 10 mg API in 100 g buffer): 12.1 µg/mL
solubility ([1]; citrate buffer, pH 4.5, aqueous with cosolvent or surfactant or cyclodextrin, citrate buffer pH 4.5, 1 wt.-% SLS, 1 mg API in 100 g buffer): 79.5 µg/mL
solubility ([1]; citrate buffer, pH 4.5, aqueous with cosolvent or surfactant or cyclodextrin, citrate buffer pH 4.5, 1 wt.-% SLS, 10 mg API in 100 g buffer): 8.19 µg/mL
solubility ([1]; citrate buffer, pH 4.5, aqueous with cosolvent or surfactant or cyclodextrin, citrate buffer pH 4.5, 1 wt.-% Solutol ® HS 15, 1 mg API in 100 g buffer): 7.95 µg/mL
solubility ([1]; citrate buffer, pH 4.5, aqueous with cosolvent or surfactant or cyclodextrin, citrate buffer pH 4.5, 1 wt.-% Tween ® 80, 1 mg API in 100 g buffer): 7.93 µg/mL
solubility ([1]; citrate buffer, pH 4.5, aqueous with cosolvent or surfactant or cyclodextrin, citrate buffer pH 4.5, 1 wt.-% vitamin E TPGS, 10 mg API in 100 g buffer): 76.4 µg/mL
Sum of impurities ([1]; phosphate buffer pH 4.5, 1 wt.-% Cremophor ® RH 40, 1 mg API in 100 g buffer): 0.2 % (a/a)
Sum of impurities ([1]; phosphate buffer pH 4.5, 1 wt.-% Gelucire ® 44/14, 1 mg API in 100 g buffer): 17.48 % (a/a)
Sum of impurities ([1]; phosphate buffer pH 4.5, 1 wt.-% Labrasol ®, 1 mg API in 100 g buffer): 5.91 % (a/a)
Sum of impurities ([1]; phosphate buffer pH 4.5, 1 wt.-% PEG 400, 1 mg API in 100 g buffer): 11.7 % (a/a)
Sum of impurities ([1]; phosphate buffer pH 4.5, 1 wt.-% Propylene glycol, 1 mg API in 100 g buffer): 38.22 % (a/a)
Sum of impurities ([1]; phosphate buffer pH 4.5, 1 wt.-% SLS, 1 mg API in 100 g buffer): 22.55 % (a/a)
Sum of impurities ([1]; phosphate buffer pH 4.5, 1 wt.-% Solutol ® HS 15, 1 mg API in 100 g buffer): 0.2 % (a/a)
Sum of impurities ([1]; phosphate buffer pH 4.5, 1 wt.-% Tween ® 80, 1 mg API in 100 g buffer): 0.52 % (a/a)
Sum of impurities ([1]; phosphate buffer pH 4.5, 1 wt.-% vitamin E TPGS, 10 mg API in 100 g buffer): 1.87 % (a/a)
solubility ([1]; phosphate buffer, pH 4.5, aqueous buffer, phosphate buffer pH 4.5, 1 wt.-% PEG 400, 1 mg API in 100 g buffer): 0.83 µg/mL
solubility ([1]; phosphate buffer, pH 4.5, aqueous buffer, phosphate buffer pH 4.5, 1 wt.-% Propylene glycol, 1 mg API in 100 g buffer): 0.04 µg/mL
solubility ([1]; phosphate buffer, pH 4.5, aqueous with cosolvent or surfactant or cyclodextrin, phosphate buffer pH 4.5, 1 wt.-% Cremophor ® RH 40, 1 mg API in 100 g buffer): 7.67 µg/mL
solubility ([1]; phosphate buffer, pH 4.5, aqueous with cosolvent or surfactant or cyclodextrin, phosphate buffer pH 4.5, 1 wt.-% Gelucire ® 44/14, 1 mg API in 100 g buffer): 53.5 µg/mL
solubility ([1]; phosphate buffer, pH 4.5, aqueous with cosolvent or surfactant or cyclodextrin, phosphate buffer pH 4.5, 1 wt.-% Labrasol ®, 1 mg API in 100 g buffer): 45.8 µg/mL
solubility ([1]; phosphate buffer, pH 4.5, aqueous with cosolvent or surfactant or cyclodextrin, phosphate buffer pH 4.5, 1 wt.-% SLS, 1 mg API in 100 g buffer): 1.68 µg/mL
solubility ([1]; phosphate buffer, pH 4.5, aqueous with cosolvent or surfactant or cyclodextrin, phosphate buffer pH 4.5, 1 wt.-% Solutol ® HS 15, 1 mg API in 100 g buffer): 6.71 µg/mL
solubility ([1]; phosphate buffer, pH 4.5, aqueous with cosolvent or surfactant or cyclodextrin, phosphate buffer pH 4.5, 1 wt.-% Tween ® 80, 1 mg API in 100 g buffer): 8.91 µg/mL
solubility ([1]; phosphate buffer, pH 4.5, aqueous with cosolvent or surfactant or cyclodextrin, phosphate buffer pH 4.5, 1 wt.-% vitamin E TPGS, 10 mg API in 100 g buffer): 256 µg/mL
degradation of API after autoclaving ([2]; citrate buffer and SLS): highest degradation
degradation of API after autoclaving ([2]; phosphate buffer and vitamin E TPGS): lowest degradation
assay values over storage ([3]; all investigated compositions, 3 months, stored at 6° C. or 25° C.): remained stable
assay over storage ([3]; stored at 40° C.): decreased considerably
Assay ([3]; 6° C., 1 m): 70.25 % L.S.
Impurities ([3]; 6° C., 1 m): 1.00 % (a/a)
Assay ([3]; 6° C., 2 w): 70.56 % L.S.
Impurities ([3]; 6° C., 2 w): 0.57 % (a/a)
Assay ([3]; t = 0): 70.39 % L.S.
Impurities ([3]; t = 0): 0.57 % (a/a)

From US20180243273A1, “Composition for Intravesical Administration for Treating Bladder Pain” (priority 2017, published 2018)
